Experimental data from ChEMBL document CHEMBL1201862, “PubChem BioAssay data set” (2004).
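A five-concentration, 48-hour dose response in 96-well plates underlies each endpoint, interpolated linearly between surrounding concentrations. GI50 = concentration required for 50% inhibition of growth.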 Active and inactive are the calls of the source. Cut-off read from the data, not from the text of the source: active = GI50 up to about 1.1 µM and inactive = higher. Starred links: 1 amine or outer side, 2 acyl side, 3 side chain; linkers in the order of their positions; H or OH if unused. Non-standard residues stand in square brackets, D forms with d. Residues, ends and D or L forms follow the SMILES beside them. X4 = C[C@H](N[*:1])C(=O)C(C)(C)C(=O)[*:2]; Hmpa(2S,3S) = CC[C@H](C)[C@H](O)C(=O)O; NMeY = CN[C@@H](Cc1ccc(O)cc1)C(=O)O; NMeL = CN[C@@H](CC(C)C)C(=O)O; NMeV = CN[C@H](C(=O)O)C(C)C; βAla = NCCC(=O)O

Columns and labels:
Assay in all cases: inhibition of tumour cell growth, NCI panel, 48 h
T47D = system: T47D
MCF7 = system: MCF7
KM-20L2 = system: KM-20L2
M19-MEL = system: M19-MEL
DMS-273 = system: DMS-273
DMS-114 = system: DMS-114
DLD-1 = system: DLD-1
XF498 = system: XF498

## [N-]=[N+]=Nc1ccccc1C(=O)N1C(=O)c2ccccc2C(=O)N(C(=O)c2ccccc2N=[N+]=[N-])c2ccccc21
T47D
  GI50: 23.1 µM (inactive)
MCF7
  GI50: 52.2 µM (inactive)

## CN(C)c1ccc(/C=C/c2nc3ccccc3s2)cc1
T47D
  GI50: > 100 µM (inactive)
MCF7
  GI50: > 100 µM (inactive)

## C=C(Cl)[C@](Cl)(CBr)CC[C@@H](Br)C(C)(C)Cl [HALOMON]
T47D
  GI50: 3.18 µM (inactive)
MCF7
  GI50: 0.822 µM (active)

## CC(=O)C1C(=O)C(C(C)=O)C2C3C=CC(C3)C12 (stereo not given)
T47D
  GI50: > 100 µM (inactive)
MCF7
  GI50: > 100 µM (inactive)

## COC(=O)c1c(C(=O)OC)c2ccccn2c1-c1cc(C)cc2c1C(=O)C=CC2=O
T47D
  GI50: 4.21 µM (inactive)

## CCn1c2c(c3ccccc31)C(c1ccccc1)CC1C(=O)N(c3ccccc3)C(=O)C21 (stereo not given)
KM-20L2
  GI50: > 100 µM (inactive)
M19-MEL
  GI50: > 100 µM (inactive)
DMS-273
  GI50: 51.4 µM (inactive)
DMS-114
  GI50: 89.5 µM (inactive)
DLD-1
  GI50: 74 µM (inactive)
XF498
  GI50: 15.8 µM (inactive)

## CS(=O)(=O)O[C@H]1[C@H](O)c2ccccc2[C@@H]1N=[N+]=[N-]
MCF7
  GI50: > 100 µM (inactive)

## O=C(CN1CCOCC1)CC(O)(C(F)(F)F)C(F)(F)F
T47D
  GI50: 42.4 µM (inactive)
MCF7
  GI50: > 100 µM (inactive)

## CN(C)CC1CCCC(CN(C)C)C1OC(=O)c1ccccc1 (stereo not given)
KM-20L2
  GI50: > 100 µM (inactive)
M19-MEL
  GI50: > 100 µM (inactive)
DMS-273
  GI50: > 100 µM (inactive)
DLD-1
  GI50: > 100 µM (inactive)

## COc1ccc(-n2c(=O)c3nc(S)[nH]c3n(-c3ccc(OC)cc3)c2=S)cc1
T47D
  GI50: > 100 µM (inactive)
MCF7
  GI50: > 100 µM (inactive)

## O=C(O)c1cnc(-n2[nH]c3c(c2=O)CCCC3)[nH]c1=O
T47D
  GI50: > 100 µM (inactive)

## Cc1c(C#N)c(=N)oc2ccccc12
T47D
  GI50: 75.7 µM (inactive)
MCF7
  GI50: > 100 µM (inactive)

## CC(C)(C)C1CCC2c3c([nH]c4ccccc34)C3C(=O)N(c4ccccc4)C(=O)C3C2C1 (stereo not given)
M19-MEL
  GI50: 7.66 µM (inactive)
DMS-273
  GI50: 3.34 µM (inactive)
DMS-114
  GI50: 6.15 µM (inactive)
DLD-1
  GI50: 20.4 µM (inactive)
XF498
  GI50: 0.389 µM (active)

## O=C(O)CCN1CCN(CCC(=O)O)CCN(CCC(=O)O)CC1
T47D
  GI50: > 100 µM (inactive)
MCF7
  GI50: 98.2 µM (inactive)

## Cc1ccccc1-n1c(=O)nc2n(-c3ccc(C(C)(C)C)cc3)c3ccccc3cc-2c1=O
T47D
  GI50: 26.2 µM (inactive)
MCF7
  GI50: 22.9 µM (inactive)

## CCOC(=O)C(NC(=O)c1cccc(Cl)c1)(Nc1cccc(C)c1)C(F)(F)F (stereo not given)
T47D
  GI50: 19 µM (inactive)
MCF7
  GI50: 19 µM (inactive)

## O=C1Nc2ccccc2/C1=N/Nc1ccccc1[N+](=O)[O-]
T47D
  GI50: 38.5 µM (inactive)
MCF7
  GI50: > 100 µM (inactive)

## CCc1ccc2oc(-c3cc(O)c(-c4nc5cc(CC)ccc5o4)cc3O)nc2c1
T47D
  GI50: > 100 µM (inactive)
MCF7
  GI50: > 100 µM (inactive)

## N#CC1(C#N)C=CC(=C2OCC3CCCN23)C=C1 (stereo not given)
KM-20L2
  GI50: > 100 µM (inactive)
M19-MEL
  GI50: > 100 µM (inactive)
DMS-273
  GI50: > 100 µM (inactive)
DMS-114
  GI50: > 100 µM (inactive)
DLD-1
  GI50: > 100 µM (inactive)

## CC1(C)Cc2cc(C(=O)O)c3c(c2C1=O)COCC3
KM-20L2
  GI50: > 100 µM (inactive)
M19-MEL
  GI50: > 100 µM (inactive)
DMS-273
  GI50: > 100 µM (inactive)
DMS-114
  GI50: > 100 µM (inactive)
DLD-1
  GI50: > 100 µM (inactive)
XF498
  GI50: > 100 µM (inactive)

## CCOP(=O)(OCC)C(c1ccc(F)cc1)N(C(=O)NC(F)(F)F)c1cccc(C(F)(F)F)c1 (stereo not given)
T47D
  GI50: 83.9 µM (inactive)
MCF7
  GI50: > 100 µM (inactive)

## O=c1oc2cc(O)ccc2c2[nH]c3cc(O)ccc3c12
KM-20L2
  GI50: 37.2 µM (inactive)
M19-MEL
  GI50: 27.9 µM (inactive)
DMS-273
  GI50: 21.6 µM (inactive)
DMS-114
  GI50: 21.1 µM (inactive)
DLD-1
  GI50: 30.2 µM (inactive)
XF498
  GI50: 25.5 µM (inactive)

## O=c1c2sc(=S)n(-c3ccc(F)cc3)c2ncn1/N=C/c1ccc(F)cc1F
MCF7
  GI50: 41.5 µM (inactive)

## CC(CSC(=N)N)C(N)=O (stereo not given)
T47D
  GI50: > 100 µM (inactive)
MCF7
  GI50: > 100 µM (inactive)

## CCOc1cccc(/C=N/N=C2\C(=O)Nc3c(Cl)cc(Cl)cc32)c1O
MCF7
  GI50: 57.5 µM (inactive)

## COC(=O)C1c2cc3c(cc2C(OC2OC(C)C(OC)C(C)(OC)C2OC)CC1(C)O)C(=O)c1c(O)cc2c(c1C3=O)OC1OC2(C)C(O)C([N+](C)(C)[O-])C1O (stereo not given)
T47D
  GI50: 0.13 µM (active)
MCF7
  GI50: 0.149 µM (active)

## Cc1cccc(N2CCN(S(=O)(=O)c3ccc(Cl)cc3)C2=N)c1C
T47D
  GI50: > 100 µM (inactive)
MCF7
  GI50: > 100 µM (inactive)

## CC(C)(C)c1cc(CCCCCCCC2(CCCCCCCc3cc(C(C)(C)C)cc(C(C)(C)C)c3)OC(COCCOCCCCCC#N)C(COCCOCCCCCC#N)O2)cc(C(C)(C)C)c1 (stereo not given)
KM-20L2
  GI50: > 100 µM (inactive)
M19-MEL
  GI50: > 100 µM (inactive)
DMS-273
  GI50: > 100 µM (inactive)
DMS-114
  GI50: > 100 µM (inactive)
DLD-1
  GI50: > 100 µM (inactive)

## CN1CCOC(C(NC(=O)c2ccccc2)c2ccccc2)C1=O (stereo not given)
KM-20L2
  GI50: > 100 µM (inactive)
M19-MEL
  GI50: > 100 µM (inactive)
DMS-273
  GI50: > 100 µM (inactive)
DLD-1
  GI50: > 100 µM (inactive)

## CC[C@H](C)[C@@H]1OC(=O)CCNC(=O)[C@@H](C)NC(=O)C(C)(C)C(=O)[C@H](C)NC(=O)[C@H](Cc2ccc(OC)cc2)N(C)C(=O)[C@H](C(C)C)N(C)C(=O)CNC(=O)[C@H](CC(C)C)N(C)C(=O)CNC1=O (cyclo(G[NMeL]G[NMeV][NMeY](Me)[X4][dA][βAla][Hmpa(2S,3S)]))
T47D
  GI50: 2.19 µM (inactive)
MCF7
  GI50: 0.387 µM (active)
